Like-named read-outs stand apart in the source and are kept apart here.
Tests used:
[1] = system: HEK293 cells transfected with TLR6; assay: TLR signaling, IL-8 ELISA; type: cell-based, human; conditions: HEK/TLR6, RR1 0-100 μg/ml, 24 hours
Experimental: HEK293/TLR6 cells (1×10^6) were treated with RR1 (0, 10, 50, and 100 μg/ml) at 37° C. for 24 hours and secreted IL-8 in the medium was analyzed by ELISA protocol.
(§1) TLR signaling. To determine the involvement of TLR signaling, parental HEK293 as well as HEK293 cells transfected with human TLR2, TLR6, TLR2/6 or TLR4/CD14/MD2 genes (cloned into pDUO plasmid), were used. These cells (0.5×10^6/ml) were incubated with 0-100 μg/ml of RR1 for 24 hours. Since these cells produce very low level of TNF-α and detectable levels of IL-8 upon activation, IL-8 secreted into the medium was analyzed using ELISA procedure. Incidentally, the IL-8 synthesis is also under the control of the transcription factor NF-κB.

[2] = system: HEK293 cells transfected with TLR2/6; assay: TLR signaling, IL-8 ELISA; type: cell-based, human; conditions: HEK/TLR2/6, RR1 0-100 μg/ml, 24 hours
Experimental: HEK293/TLR2/TLR6 cells (1×10^6) were treated with RR1 (0, 10, 50 and 100 μg/ml) at 37° C. for 24 hours and secreted IL-8 in the medium was analyzed by ELISA protocol.
as §1

normal lymphocytes [3] = assay: Quantification of cytokine and chemokine synthesis by ELISA; type: cell-based, human
Experimental: FIGS. 8A-8H show synthesis of cytokines and chemokine in RR1-induced normal lymphocytes. Normal lymphocytes from healthy volunteers were treated with RR1 (0-100 μg) at 37° C. for 24 hours in a CO2 incubator in RPMI medium. The supernatant medium was analyzed for the production of cytokines and chemokine in an ELISA procedure using reagent kits (BD Biosciences).
Immunostimulating Properties. To measure the immune stimulatory property of RR1, the activation of the different subsets of lymphocytes, syntheses of cytokines such as interleukin (IL)-1β, IL-2, IL-4, IL-6, IL-10, IL-12 p70 and p40, IL-18, interferon (IFN)-α and γ, Tumor Necrosis factor (TNF)-α and β, monocyte chemo-attractant protein (MCP)-1, synthesis of nitric oxide (NO), and the extent of oxidative stress elicited in human lymphocytes was analyzed. Normal lymphocytes were isolated by the histopaque density gradient method from fresh blood drawn from healthy volunteers and utilized for various assays. Human leukemic (CEM) and multidrug resistant (CEM/VLB) cell lines were grown in RPMI medium supplemented with 10% fetal bovine serum and antibiotics in 5% CO2 incubator at 37° C.
Quantification of Cytokine and Chemokine Synthesis. Cytokines such as IL-1β, IL-2, IL-4, IL-6, IL-10, IL-12p40, IL-12p70, IL-18, IFN-γ and TNF-α, β and chemokine, MCP-1 were quantified by ELISA procedure using kits from BD Biosciences, according to manufacturer's protocols. IFN-α was assayed using the ELISA kit of RESEARCH DIAGNOSTICS Inc. (New Jersey). In short, 50 μl of ELISA diluent is pipetted into antibody coated wells of 96 well plates followed by 100 μl of each standard and test samples, shaken for 5 seconds to mix the contents in the wells, covered with plate sealer and incubated for 2 hours at room temperature. After incubation, the contents of the wells were aspirated and washed five times with wash solution. After complete removal of the wash solution in the final wash, 100 μl of detection solution was added, covered with plate sealer, and incubated for 1 hour. The wells were washed 7 times with wash solution and added 100 μl of one step substrate reagent and incubated for 30 minutes in dark. The color development was stopped by adding 50 μl of stop solution and the absorbance were recorded at 450 nm with a reference wave length of 570 nm in a BIO-RAD Benchmark plate reader.

[4] = system: monocytes isolated from peripheral blood mononuclear cells; assay: NO synthesis in monocytes; type: cell-based
Text: (§2) NO levels are also reported to play an important role in the modulation of Th cell differentiation and polarization. Yamasaki et al. (Yamasaki, A. et al. Yonago Acta Medica, 1998, 44:7-15) and Taylor-Robinson et al. (Taylor-Robinson, A. W. et al. Eur. J. Immunol., 1994, 24:980-984) reported an inhibitory role of NO on Th1 cytokines while Bauer et al. (Bauer, H. et al., Immunol, 1997, 90:205-211) reported the same for Th1 as well as Th2 cytokines by NO from activated T cells. […] The enzyme iNOS produced a high output of NO from macrophages upon stimulation. […] The absence of iNOS induction by RR1 supports the conclusion that there is an insignificant increase in the production of NO. […] IFN-α, IFN-γ and TNF-α are known up-regulators of NO synthesis (Shin, J. Y. et al. Immunopharmcol. Immunotoxicol., 2002, 24:469-482; Hirazumi, A. and Furusawa, E. Phytother Res., 1999, 13:380-387).

normal lymphocytes [5] = assay: Nitric oxide (NO) synthesis, Griess assay; type: cell-based, human; conditions: RR1 0-100 μg/ml, 24 hours
Experimental: Normal lymphocytes from healthy volunteers were treated with RR1 (0-100 μg) at 37° C. for 24 in a CO2 incubator in MEM medium. The supernatant medium was analyzed for the production of NO using assay kit from Active Motif, Carlsbad, Calif. and data analyzed using ANOVA (p=0.109).
The NO quantification was assayed by Nitric Oxide quantification kit (ACTIVE MOTIF, Carlsbad, Calif.) as per the manufacturer's protocol. Briefly, lymphocytes (10^6/ml) were incubated with varying concentrations of RR1 (0-100 μg/ml) for 24 hours in a nitrate free medium (DULBECO Minimum Essential Medium) at 37° C. The cell culture supernatant (70 μl) was pipetted into the wells of a 96-well plate along with 20 μl reconstituted co-factor and 10 μl nitrate reductase enzyme solution. The plate was shaken at 150 rpm on a plate shaker for 30 minutes at room temperature. Griess reagents A and B (50 μl each) were added into each well, allowed the color to develop for 20 minutes and the absorbance was taken at 540 nm with a reference wavelength of 620 nm in the BIO-RAD plate reader.

[6] = system: human monocyte cell line THP-1; assay: NO synthesis in monocyte cell line; type: cell-based
Text: as §2

[7] = RR1 0-100 μg, 24 hours (FIGS. 8A-8H)

## (1,4)-α-D-glucan [RR1]
[1]
  IL-8 production: copious induction of IL-8
[2]
  IL-8 production: copious induction of IL-8
Normal lymphocytes [3]
  synthesis of IFN-γ: 90.16 pg/mL
  synthesis of IL-6: 21833 pg/mL
  synthesis of IL-12 p40: 918.23 pg/mL
  synthesis of IL-12 p70: 50.19 pg/mL
  synthesis of MCP-1: 2307 pg/mL
Normal lymphocytes [3]; 24 hours
  production of IFN-α: did not induce
  production of IL-2: did not induce
  production of IL-4: did not induce
  production of IL-10: did not induce
  production of TNF-β: did not induce
Normal lymphocytes [3]; FIG. 8C
  RR1 concentration at which the maximum IL-12 (p40) was recorded: 10 µg/mL
Normal lymphocytes [3]; [7]
  synthesis of IFN-γ: 90.16 pg
  synthesis of IL-1β: 1080 pg
  synthesis of IL-6: 21833 pg
  synthesis of IL-12 p40: 918.23 pg
  synthesis of IL-12 p70: 50.19 pg
  synthesis of IL-18: 27.47 pg
  synthesis of MCP-1: 2307 pg
  synthesis of TNF-α: 2225 pg
Normal lymphocytes [3]; at 100 pg/ml concentration
  synthesis of IL-18: 27.47 pg/mL
  synthesis of TNF-α: 2225 pg/mL
[4]
  NO levels with RR1 treatment: did not induce any higher levels of NO
Normal lymphocytes [5]
  increase in NO: ≤ 21%
[6]
  NO levels with RR1 treatment: did not induce any higher levels of NO
